Source: patent publication US5827849A, “Cyclic dericatives, pharmaceutical compositions containing these compounds and processes for preparing them” (Karl Thomae GmbH, priority 1993, dated 1998)
Where a name gives a salt, the structure may show the parent alone. Read-outs that look alike come from different tables or passages of the source.

Tests used:
[1] = system: Human thrombocytes; experiment: Inhibition of the binding of 3H-BIBU 52 to human thrombocytes (platelets); settings: 20 minutes
Description: 1. Inhibition of the binding of ^3 H-BIBU 52 to Human thrombocytes […] Case 5/1093-FL) and various concentrations of the test substance. The free and bound ligand are separated by centrifuging and quantitatively measured by scintillation counting. From the measurements obtained the inhibition of ^3 H-BIBU 52 binding caused by the test substance is determined. In order to do this, donor blood is taken from an anticubital vein and anti-coagulated with trisodium citrate (final concentration 13 mM). The blood is centrifuged for 10 minutes at 170×g and the supernatant platelet-rich plasma (PRP) is removed. The remaining blood is centrifuged vigorously once more in order to recover plasma. The PRP is diluted with autologous plasma 1:10. 750 μl are incubated for 20 minutes at ambient temperature with 50 μl of physiological saline solution, 100 μl of test substance solution, 50 μl of ^14 C-sucrose (3700 Bq) and 50 μl of ^3 H-BIBU 52 (final concentration: 5 nM). In order to measure the non specific binding, 5 μl of BIBU 52 (final concentration 30 μM) are used instead of the test substance. […] The pellet is dissolved in 500 μl of 0.2N NaOH, 450 μl are mixed with 2 ml of scintallator and 25 μl of 5N HCl, and measured. The residual plasma remaining in the pellet is determined from the ^14 C-content, and the bound ligand is determined from the ^3 H-measurement. After substracting the non specific binding, the pellet activity is plotted against the concentration of the test substance and the concentration for 50% inhibition of binding is determined. A. Inhibition of the binding of ^3 H-BIBU 52 to human platelets […] The free and bound ligand is separated by centrifugation and determined quantitatively by scintillation counting. The inhibition of ^3 H-BIBU 52 binding by the test substance is determined from the measurements. For this purpose, donor blood is taken from an antecubital vein and anticoagulated with trisodium citrate (final concentration 13 mM). The blood is centrifuged at 170×g for 10 minutes, and the supernatant platelet-rich plasma (PRP) is removed. The remaining blood is thoroughly centrifuged once again to obtain plasma. The PRP is diluted 1:10 with autologous plasma. […] are incubated with […] of physiological saline, […] of test substance solution, […] of ^14 C-sucrose (3700 Bq) and 50 ml of ^3 H-BIBU 52 (final concentration: 5 nM) at room temperature for 20 minutes. To measure the nonspecific binding, 5 ml of BIBU 52 (final concentration: […]) are used in place of the test substance. […] The pellet is dissolved in 500 ml of 0.2N NaOH, and 450 ml are mixed with 2 ml of scintillator and 25 ml of 5N HCl and measured. The remaining plasma still present in the pellet is determined from the ^14 C content, and the bound ligand is determined from the ^3 H measurement. After subtraction of the nonspecific binding, the activity in the pellet is plotted against the concentration of test substance, and the concentration for 50% inhibition of binding is found.

[2] = system: Thrombocyte aggregation (collagen-induced); experiment: Collagen-induced platelet aggregation in platelet-rich plasma (Born and Cross method); format: cell-based; settings: Homo sapiens, 10 min, 10 minutes incubation at 37° C., read-out: Inhibition of platelet aggregation EC50
Description: 2. Antithrombotic activity Thrombocyte aggregation is measured using the Born and Cross method (J. Physiol. 170: 397 (1964)) in platelet-rich plasma taken from healthy volunteers. To inhibit coagulation the blood is mixed with 3.14% sodium citrate in a ratio by volume of 1:10. Collagen-induced aggregation The pattern of the decrease in optical density of the platelet suspension is photometrically measured and recorded after the addition of the aggregation-triggering substance. The rate of aggregation is determined from the angle of inclination of the density curve. The point on the curve where there is maximum light transmittance is used to calculate the optical density. The amount of collagen used is as small as possible but sufficient to produce an irreversible reaction curve. Standard commercial collagen produced by Hormonchemie of Munich is used. Before the addition of the collagen the plasma is incubated for 10 minutes with the test substance at 37° C. From the measurements obtained, an EC50 is determined graphically, indicating a 50% change in the optical density in terms of the inhibition of aggregation. B. Antithrombotic effect Platelet aggregation is measured by the method of Born and Cross (J. Physiol. 170, 397 (1964)) in platelet-rich plasma from healthy test subjects. For anticoagulation, sodium citrate 3.14% is added to the blood in the ratio 1:10 by volume. Collagen-induced aggregation The course of the decrease in optical density of the platelet suspension is measured and recorded photometrically after addition of the aggregation-inducing substance. The rate of aggregation is established from the angle of inclination of the density plot. The point on the plot at which the transmission of light is a maximum is used to calculate the optical density. The amount of collagen is chosen to be as small as possible but sufficient for the reaction plot to have an irreversible course. The collagen commercially obtainable from Hormonchemie, Munich, is used. Before the addition of collagen the plasma is in each case incubated with the substance at 37° C. for 10 minutes. An EC50 which relates to a 50% change in the optical density in the sense of inhibition of aggregation is determined graphically from the measured results.

[3] = system: collagen-induced thrombocyte aggregation; experiment: Inhibition of collagen-induced thrombocyte aggregation ex vivo after oral administration; format: in vivo; settings: Rhesus monkeys; oral administration of 1 mg/kg
[4] = human thrombocytes in plasma, 3H-BIBU 52 5 nM, ambient temperature, read-out: 3H-BIBU 52-binding test IC50
[5] = platelet-rich plasma of healthy volunteers, compounds of general formula I
[6] = human platelets in plasma, 3H-BIBU 52 5 nM replaces 125I-fibrinogen, room temperature, read-out: Fibrinogen binding assay IC50
[7] = platelet-rich plasma from healthy test subjects, compounds of general formula XXI

SMILES	IC50 [1, 4]	EC50 [2, 5]	IC50 [1, 6]	EC50 [2, 7]	duration of inhibition of collagen-induced thrombocyte aggregation ex vivo [3]
O=C(O)CCc1ccc(N2CCN([C@@H]3CC[C@H]4CNCC[C@@H]4C3)C2=O)cc1 (relative stereo) [9(1)]	760 nM	990 nM	–	–	–
O=C(O)CCc1ccc(-n2ccn(-c3ccc4cnccc4c3)c2=O)cc1 [2(1), 1-[4-(2-carboxyethyl)phenyl]-3-(isoquinolin-6-yl)-3H-imidazol-2-one]	5400 nM	> 10000 nM	–	–	–
O=C(O)CCc1ccc(N2CCN(c3ccc4c(c3)CCNC4)C2=O)cc1 [2(2), 1-[4-(2-carboxyethyl)phenyl]-3-(1,2,3,4-tetrahydroisoquinolin-6-yl)-imidazolidin-2-one]	24 nM	40 nM	–	–	–
CN1CCc2ccc(N3CCN([C@H]4CC[C@H](OCC(=O)O)CC4)C3=O)cc2CC1 [19(1), 1-[trans-4-[(carboxymethyl)oxy]cyclohexyl]-3-(3-methyl-2,3,4,5-tetrahydro-1H-3-benzazepin-7-yl)-imidazolidin-2-one-hydrochloride×NaCl×0.5H2 O]	120 nM	350 nM	–	–	–
CN1CCc2ccc(N3CC(=O)N([C@H]4CC[C@H](CCC(=O)O)CC4)C3=O)cc2CC1 [19(3), 3-[trans-4-(2-carboxyethyl)cyclohexyl]-1-(3-methyl-2,3,4,5-tetrahydro-1H-3-benzazepin-7-yl)-hydantoin-hydrochloride]	81 nM	430 nM	–	–	–
CCN1CCc2cc(N3CCN([C@H]4CC[C@H](CCC(=O)O)CC4)C3=O)cnc2CC1 [32 (1), 1-[trans-4-(2-Carboxyethyl)cyclohexyl]-3-(7-ethyl-6,7,8,9-tetrahydro-5H-pyrido[2,3-d]azepin-3-yl)imidazolidin-2-one×1 H2 O]	–	–	250 nM	310 nM	–
CCN1CCc2cnc(N3CCN(C4CCC(CCC(=O)O)CC4)C3=O)cc2CC1 (stereo not drawn) [32 (2), 1-[trans-4-(2-carboxyethyl)cyclohexyl]-3-(7-ethyl-6,7,8,9-tetrahydro-5H-pyrido[3,4-d]imidazolidin-2one]	–	–	1000 nM	2300 nM	–
O=C(O)CC[C@H]1CC[C@H](N2CCN(c3ccc4c(n3)CCNCC4)C2=O)CC1 [32 (3), 1-[trans-4-(2-Carboxyethyl)cyclohexyl]-3-(6,7,8,9-tetrahydro-5H-pyrido[2,3-d]azepin-2-yl)imidazolidin-2-one]	–	–	15 nM	81 nM	–
O=C(O)CC[C@H]1CC[C@H](n2ccn(-c3cnc4c(n3)CCNCC4)c2=O)CC1 [32 (6), 1-[trans-4-(2-Carboxyethyl)cyclohexyl]-3-(6,7,8,9-tetrahydro-5H-pyrazino[2,3-d]azepin-2-yl)-3H-imidazol-2-one]	–	–	31 nM	230 nM	–
CN1CCc2ccc(N3CCN([C@H]4CC[C@H](CCC(=O)O)CC4)C3=O)nc2CC1 [35 (1), 1-[trans-4-(2-Carboxyethyl)cyclohexyl]-3-(7-methyl-6,7,8,9-tetrahydro-5H-pyrido[2,3-d]azepin-2-yl)imidazolidin-2-one dihydrochloride×2H2 O]	–	–	17 nM	110 nM	–
CCN1CCc2ncc(N3CCN(c4ccc(OCC(=O)O)cc4)C3=O)nc2CC1 [36 (1), 1-[4-[(Carboxymethyl)oxy]phenyl]-3-(7-ethyl-6,7,8,9-tetrahydro-5H-pyrazino[2,3-d]azepin-2-yl)imidazolidin-2-one×1.75 HCl×H2 O]	–	–	77 nM	290 nM	–
CN1CCc2ncc(N3CCN([C@H]4CC[C@H](OCC(=O)O)CC4)C3=O)nc2CC1 [36 (2), 1-[trans-4-[(Carboxymethyl)oxy]cyclohexyl]-3-(7-methyl-6,7,8,9-tetrahydro-5H-pyrazino[2,3-d]azepin-2-yl)imidazolidin-2-one dihydrochloride]	–	–	19 nM	210 nM	–
CN1CCc2ncc(N3CCN(C4CCN(CCC(=O)O)CC4)C3=O)nc2CC1 [36 (3), 1-[1-(2-Carboxyethyl)piperidin-4-yl]-3-(7-methyl-6,7,8,9-tetrahydro-5H-pyrazino[2,3-d]azepin-2-yl)imidazolidin-2-one trihydrochloride]	–	–	18 nM	71 nM	–
CCN1CCc2ncc(N3CCN(c4ccc(CCC(=O)O)cc4)C3=O)nc2CC1 [36 (10), 1-[4-(2-Carboxyethyl)phenyl]-3-(7-ethyl-6,7,8,9-tetrahydro-5-pyrazino[2,3-d]azepin-2-yl)imidazolidin-2-one×1,4 HCl×2 H2 O]	–	–	32 nM	130 nM	–
CN1CCc2ncc(N3CC(=O)N([C@H]4CC[C@H](CCC(=O)O)CC4)C3=O)nc2CC1 [36 (12), 3-[trans-4-(2-Carboxyethyl)cyclohexyl]-1-(7-methyl-6,7,8,9-tetrahydro-5H-pyrazino[2,3-d]azepin-2-yl)-imidazolidine-2,4-dione hydrochloride]	–	–	13 nM	450 nM	–
Nc1nccc2cc(N3CCN(c4ccc(CCC(=O)O)cc4)C3=O)ccc12 [Example 1, 1-(1-Aminoisoquinolin-6-yl)-3-[4-(2-carboxyethyl)phenyl]-imidazolidin-2-one×1 water×1.2 acetic acid]	190 nM	> 10000 nM	–	–	–
COC(=O)CCc1ccc(N2CCN(c3ccc4c(c3)CCNC4)C2=O)cc1 [Example 6, 1-[4-[2-(Methoxycarbonyl)ethyl]phenyl]-3-(1,2,3,4-tetrahydro-isoquinolin-6-yl)-imidazolidin-2-one-acetate]	110 nM	40 nM	–	–	–
CC(C)COC(=O)CCc1ccc(N2CCN(c3ccc4c(c3)CCNC4)C2=O)cc1 [Example 7, 1-[4-[2-(Isobutyloxycarbonyl)ethyl]phenyl]-3-(1,2,3,4-tetrahydroisoquinolin-6-yl)-imidazolidin-2-one-hydrochloride×1 water]	–	–	–	–	more than 5 hours
O=C(O)CCc1ccc(N2CCN(c3ccc4c(c3)CCNCC4)C2=O)cc1 [Example 9, 1-[4-(2-Carboxyethyl)phenyl]-3-(2,3,4,5-tetrahydro-1H-3-benzazepin-7-yl)-imidazolidin-2-one]	85 nM	190 nM	–	–	–
CN1CCc2ncc(N3CCN([C@H]4CC[C@H](CCC(=O)O)CC4)C3=O)nc2CC1 [Example 32, 1-[trans-4-(2-Carboxyethyl)cyclohexyl]-3-(7-methyl-6,7,8,9-tetrahydro-5H-pyrazino[2,3-d]azepin-2-yl)imidazolidin-2-one×1 H2 O]	–	–	11 nM	100 nM	–
